Values after ≈ are worked out from the molar mass of the structure shown.
System: P. aeruginosa T3SS-mediated secretion of ExoS-β-lactamase fusion protein
Experiment: Effector-β-lactamase (ExoS-βLA) reporter assay of T3SS-mediated secretion
Assay type: cell-based, Pseudomonas aeruginosa
Details: read-out: ExoS-BLA IC50; Table 1
Description: Effector-β-Lactamase (βLA) Reporter Assay of T3SS-Mediated Secretion with an Absorbency Signal.
A gene encoding the exoS promoter/regulatory region and an ExoS-β-lactamase (βLA) fusion protein (comprised of the full length P. aeruginosa T3SS effector ExoS fused in reading frame to the TEM-1 β-lactamase gene lacking secretion signal codons) was constructed by splicing by overlap extension PCR (SOE-PCR) (Choi and Schweizer, 2005, BMC Microbiol., 5:30), sequence confirmed, cloned into miniCTX and introduced into P. aeruginosa strain PAO1 to generate strains MDM1746 and MDM1838 as previously described for strain MDM1710 (Bowlin et al., 2014, Antimicrob Agents Chemother., 58:2211-2220). Secretion of ExoS-β-lactamase fusion protein following EGTA addition to induce the T3SS operons was detected by measuring the hydrolysis of the chromogenic β-lactamase substrate nitrocefin in clear 96-well microplates in a modification of a previously described assay (Lee, et al., 2007, Infect. Immun., 75:1089-98). Cells of strain MDM1746, or negative control MDM1838 (which fails to carry out T3SS secretion due to ΔpscF), were sub-cultured in the morning from overnight growths in LBG into 0.1 ml of LBGE with or without test compounds and grown for 150 min. Nitrocefin (100 μg/mL final) was added, and A490 measurements taken every minute for 15 min in a Victor^3V 1420 Multilabel HTS Counter (PerkinElmer). Slopes were calculated as a relative measure of the quantity of the effector-βLA fusion protein secreted and were absolutely dependent on induction with EGTA, and the presence of a functional pscF gene in the P. aeruginosa cells. Typical signal: background ratios were 6-10.
Compound `CC[C@@H](Oc1ncc(Cl)cc1Cl)C(=O)NCc1ccc2cc(CN(C)C)[nH]c2c1` [MBX-2867] has an IC50 of 1.3 µM. Work on `CC[C@@H](Oc1ncc(Cl)cc1Cl)C(=O)NC(CO)Cc1ccc(F)cc1` (stereo partly shown) [MBX-3323] yielded an IC50 of 5 µM. `CC[C@@H](Oc1ncc(Cl)cc1Cl)C(=O)NCCc1ccc(NC(C)=O)cc1` [MBX-3337] showed an IC50 of 1.2 µM. Compound `CC[C@@H](Oc1ncc(Cl)cc1Cl)C(=O)NCc1ccc2cc(C(=O)N3CCOCC3)[nH]c2c1` [MBX-3458] has an IC50 of 0.9 µM. With `CC[C@@H](Oc1ncc(Cl)cc1Cl)C(=O)NCc1cccc(CN)c1` [MBX-4565] the IC50 was 9 µM. For `CC[C@@H](Oc1ncc(Cl)cc1Cl)C(=O)N[C@@H](CO)Cc1ccc(F)cc1` [MBX-4567], the IC50 was 14 µM. `CC[C@@H](Oc1ncc(Cl)cc1Cl)C(=O)NCc1cccc(C(=O)NC2CNC2)c1` [MBX-5031] gave an IC50 of 1.7 µM.

System: P. aeruginosa T3SS-mediated secretion (exoT-luxCDABE reporter strain MDM852)
Experiment: Luciferase (exoT-lux) transcriptional reporter assay of T3SS-mediated secretion
Assay type: cell-based, Pseudomonas aeruginosa
Details: read-out: LUX Sec IC50; Table 1
Description: Luciferase Transcriptional Reporter Assay of T3SS-Mediated Secretion with a Luminescent Signal.
A transcriptional fusion of the Photorhabdus luminescens lux operon (luxCDABE) to P. aeruginosa PAO1 T3SS effector gene exoT (PA0044) was constructed and used to build strain MDM852 as described previously (Aiello et al., 2010, Antimicrob Agents Chemother, 54:1988-1999). Induction of T3SS operons by Ca^++ depletion due to EGTA addition results in secretion of the T3SS negative regulator ExsE and the production of high levels of T3SS components including the luxCDABE gene products, which results in luminescence that is easily detected by a microplate reader. Inhibition of T3SS-mediated secretion of the negative regulator ExsE by a small molecule inhibitor causes reduced production of luxCDABE gene products and reduced luminescence. For inhibitor IC50 testing, compounds were added to a 96-well microplate in a concentration dilution series. Reporter strain MDM852 was grown at 37° C. in LBG to OD600 ~0.025-0.05, transferred into the microplate (50 uL/well) containing test compounds and EGTA (5 uL of 0.1 M stock solution), which was covered with a translucent gas-permeable seal (Abgene, Inc., Cat. No. AB-0718). […] Plates were incubated at room temperature for 300 min. Then, luminescence was measured in an Envision Multilabel microplate reader (PerkinElmer). The screening window coefficient, Z′-factor (see Zhang, et al., 1999, J. Biomol. Screen., 4:67-73), defined as the ratio of the positive and negative control separation band to the signal dynamic range of the assay, averaged 0.7 for the assay.
Work on `CC[C@@H](Oc1ncc(Cl)cc1Cl)C(=O)NCc1ccc2cc(CN(C)C)[nH]c2c1` [MBX-2867] yielded an IC50 of 1.6 µM. `CC[C@@H](Oc1ncc(Cl)cc1Cl)C(=O)NC(CO)Cc1ccc(F)cc1` (stereo partly shown) [MBX-3323] gave an IC50 of 5.2 µM. Work on `CC[C@@H](Oc1ncc(Cl)cc1Cl)C(=O)NCCc1ccc(NC(C)=O)cc1` [MBX-3337] yielded an IC50 of 1.4 µM. For `CC[C@@H](Oc1ncc(Cl)cc1Cl)C(=O)NCc1ccc2cc(C(=O)N3CCOCC3)[nH]c2c1` [MBX-3458], the IC50 was 3.7 µM. `CC[C@@H](Oc1ncc(Cl)cc1Cl)C(=O)NCc1cccc(CN)c1` [MBX-4565] showed an IC50 of 8.3 µM. Compound `CC[C@@H](Oc1ncc(Cl)cc1Cl)C(=O)N[C@@H](CO)Cc1ccc(F)cc1` [MBX-4567] has an IC50 of 8.5 µM. Compound `CC[C@@H](Oc1ncc(Cl)cc1Cl)C(=O)NCc1cccc(C(=O)NC2CNC2)c1` [MBX-5031] has an IC50 of 0.2 µM.

System: T3SS-mediated translocation of ExoU by P. aeruginosa strain MDM1561 (PA99U) into CHO cells
Experiment: P. aeruginosa ExoU-dependent CHO cell killing assay for T3SS-mediated translocation
Assay type: cell-based, Pseudomonas aeruginosa
Details: assessment in text on Table 1
Description: P. aeruginosa ExoU-Dependent CHO Cell Killing.
With `CC[C@@H](Oc1ncc(Cl)cc1Cl)C(=O)NC(CO)Cc1ccc(F)cc1` (stereo partly shown) [MBX-3323] the “potency of inhibition of T3SS-mediated translocation” value was “not quite potent enough”. With `CC[C@@H](Oc1ncc(Cl)cc1Cl)C(=O)N[C@@H](CO)Cc1ccc(F)cc1` [MBX-4567] the “potency of inhibition of T3SS-mediated translocation” value was “not quite potent enough”.

Same assay, conditions: read-out: Translocation EC50; Table 1
Work on `CC[C@@H](Oc1ncc(Cl)cc1Cl)C(=O)NCc1ccc2cc(CN(C)C)[nH]c2c1` [MBX-2867] yielded an EC50 of 5.8 µM. `CC[C@@H](Oc1ncc(Cl)cc1Cl)C(=O)NC(CO)Cc1ccc(F)cc1` (stereo partly shown) [MBX-3323] showed an EC50 of 13 µM. `CC[C@@H](Oc1ncc(Cl)cc1Cl)C(=O)NCCc1ccc(NC(C)=O)cc1` [MBX-3337] showed an EC50 of 4.8 µM. In the case of `CC[C@@H](Oc1ncc(Cl)cc1Cl)C(=O)NCc1ccc2cc(C(=O)N3CCOCC3)[nH]c2c1` [MBX-3458], the EC50 is reported as 5.2 µM. Compound `CC[C@@H](Oc1ncc(Cl)cc1Cl)C(=O)NCc1cccc(CN)c1` [MBX-4565] has an EC50 of 20 µM. `CC[C@@H](Oc1ncc(Cl)cc1Cl)C(=O)N[C@@H](CO)Cc1ccc(F)cc1` [MBX-4567] gave an EC50 of 60 µM. `CC[C@@H](Oc1ncc(Cl)cc1Cl)C(=O)NCc1cccc(C(=O)NC2CNC2)c1` [MBX-5031] gave an EC50 of 1.7 µM. `CC[C@@H](Oc1ncc(Cl)cc1Cl)C(=O)NCc1cccc(NC(=O)NC2CC3(C2)CN(CCC(=O)O)C3)c1` [MBX-5452A] gave an EC50 of 2.7 µM.

Same assay, conditions: read-out: Translocation EC50; Table 6
`CC[C@@H](Oc1ncc(Cl)cc1Cl)C(=O)NCc1cccc(NC(=O)NC2CC3(C2)CN(CCC(=O)O)C3)c1` [MBX-5452A] gave an EC50 of 2.7 µM.

System: not listed separately
Experiment: Mammalian cytotoxicity (CC50), MTS conversion
Assay type: cell-based, human
Details: human, HeLa cells, Table 1; HeLa; read-out: Cytotox-HeLa CC50
Description: (§1) Determination of Mammalian Cytotoxicity.
(§2) Following incubation for 3 days at 37° C. in VP-SFM, cell viability was measured with the vital tetrazolium salt stain 3-(4,5-dimethylthiazol-2-yl)-2,5 diphenyltetrazolium bromide according to the manufacturer's instructions (Promega, Madison, Wisconsin). Values were determined in triplicate using dilutions of inhibitory compound from 100 μM to 0.2 μM.
Work on `CC[C@@H](Oc1ncc(Cl)cc1Cl)C(=O)NCc1ccc2cc(CN(C)C)[nH]c2c1` [MBX-2867] yielded a CC50 at 3 days of 30 µM. `CC[C@@H](Oc1ncc(Cl)cc1Cl)C(=O)NCc1ccc2cc(C(=O)N3CCOCC3)[nH]c2c1` [MBX-3458] showed a CC50 at 3 days of 100 µM.

Same assay, conditions: human, Table 9; cytotoxicity vs. HeLa cells; read-out: Cytotox CC50
`CC[C@@H](Oc1ncc(Cl)cc1Cl)C(=O)NCc1cccc(C(=O)NC2CN(CCC(=O)[O-])C2)c1.[Li+]` [MBX-5427A] showed a CC50 at 3 days of at least 200 µM.

System: HeLa cells
Experiment: Mammalian cytotoxicity (CC50), MTS conversion
Assay type: cell-based, human
Details: assessment in text on Table 1
Description: as §1, §2
For `CC[C@@H](Oc1ncc(Cl)cc1Cl)C(=O)NCc1ccc2cc(CN(C)C)[nH]c2c1` [MBX-2867], the “cytotoxicity” value was “exhibit cytotoxicity”.

System: not listed separately
Experiment: Kinetic aqueous solubility (nephelometric assay)
Assay type: physicochemical
Details: Table 1
Description: Solubility. The maximum aqueous solubility of analogs will be initially determined by nephelometry using a published method (44).
`CC[C@@H](Oc1ncc(Cl)cc1Cl)C(=O)NCc1ccc2cc(CN(C)C)[nH]c2c1` [MBX-2867] showed a Sol of 3000 µM. For `CC[C@@H](Oc1ncc(Cl)cc1Cl)C(=O)NCc1ccc2cc(C(=O)N3CCOCC3)[nH]c2c1` [MBX-3458], the Sol was 25 µM.

Same assay, conditions: kinetic from dmso stock; Table 9; kinetic solubility in water (nephelometric assay)
`CC[C@@H](Oc1ncc(Cl)cc1Cl)C(=O)NCc1cccc(C(=O)NC2CN(CCC(=O)[O-])C2)c1.[Li+]` [MBX-5427A] gave a solubility kinetic of 100 µM.

System: not listed separately
Experiment: Single dose pharmacokinetic (PK) determination in mice
Design: species or system CD-1 mice
Details: in vivo
For `CC[C@@H](Oc1ncc(Cl)cc1Cl)C(=O)NCc1ccc2cc(C(=O)N3CCOCC3)[nH]c2c1` [MBX-3458], the “half-life in mice” value was “short half-lives in mice”.

System: T3SS translocation, clinical isolates of Pseudomonas aeruginosa
Experiment: not given
Details: not given
In the case of `CC[C@@H](Oc1ncc(Cl)cc1Cl)C(=O)NCc1cccc(NC(=O)NC2CC3(C2)CN(CCC(=O)O)C3)c1` [MBX-5452A], the EC50 is reported as 0.74 µg/mL (≈ 1.31 µM).

Reference: patent US20260248774A1, “INHIBITORS OF BACTERIAL TYPE III SECRETION SYSTEM” (MICROBIOTIX, INC., priority 2022, published 2026)
